Counter-ions that a name gives are not always drawn.
Experiments:
[1] = test system: serotonin 5HT2A receptors; details: 3T3 fibroblasts expressing 5HT2A; cited from earlier work
human 5HT2C receptor = target: T1, human 5HT2C receptor (Homo sapiens, UniProt P28335); assay: Intracellular IP3 Accumulation Assay; assay type: cell-based; details: HEK293 cells transfected with human 5HT2C receptor; averages of at least two trials; read-out: 5-HT2C (IC50) IP Accumulation Assay
T1 construct: expressed in transfected cells; host or cells: HEK293
T1 sequence (P28335 33-458): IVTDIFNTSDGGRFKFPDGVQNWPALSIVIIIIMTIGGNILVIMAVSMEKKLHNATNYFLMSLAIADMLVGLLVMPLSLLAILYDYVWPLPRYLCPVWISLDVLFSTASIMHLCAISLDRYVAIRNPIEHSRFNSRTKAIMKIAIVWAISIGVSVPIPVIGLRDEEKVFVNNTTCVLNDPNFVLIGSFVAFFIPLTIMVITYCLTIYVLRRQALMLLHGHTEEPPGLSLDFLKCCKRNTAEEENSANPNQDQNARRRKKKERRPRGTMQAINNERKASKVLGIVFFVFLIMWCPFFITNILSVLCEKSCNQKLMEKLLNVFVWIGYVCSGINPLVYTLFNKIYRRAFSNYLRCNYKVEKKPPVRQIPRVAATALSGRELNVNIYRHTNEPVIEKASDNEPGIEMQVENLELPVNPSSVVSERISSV
Procedure: Intracellular IP3 Accumulation Assay
HEK293 cells were transfected in 15 cm sterile dishes with or without (control) 16 ug of human 5HT2C receptor cDNA [Saltzman, A. G., et al. Biochem. Biophys. Res. Commun. 181, 1469-1478 (1991)] using 25 ul of lipofectamine. Cells were then incubated for 3-4 hours at 37° C./5% CO2 and then transfection media was removed and replaced with 100 μL of DMEM. Cells were then plated onto […] sterile dishes. The next day cells were plated into 96 well PDL microtiter plates at a density of 55K/0.2 ml. Six hours latter, media was exchanged with [^3H]inositol (0.25 μCi/well) in inositol free DMEM and plates were incubated at 37° C./5% CO2 overnight. The next day, wells were aspirated and 200 μl of DMEM containing test compound, 10 μM pargyline, and 10 mM LiCl was added to appropriate wells. Plates were then incubated at 37° C./5% CO2 for three hours followed aspiration and by addition of fresh ice cold stop solution (1M KOH, 19 mM Na-borate, 3.8 mM EDTA) to each well. Plates were kept on ice for 5-10 min and the wells were neutralized by addition of 200 μL of fresh ice cold neutralization solution (7.5% HCl). Plates were then frozen until further processing is desired. The lysate was then transferred into 1.5 mL Eppendorf tubes and 1 mL of chloroform/methanol (1:2) was added/tube. […]

[2] = test system: amyloid precursor protein (APPs); details: guinea pigs, in vivo, repeat administration; cited from earlier work

In the case of `NCCc1c[nH]c2ccc(O)cc12` [Example 5-HT, 5-hydroxytryptamine], the “Maximal stimulation of APPs secretion” value [1] is listed as “about 4 fold”.
In the case of `C[C@@H]1CNCCc2cc(Cc3ccccc3)c(Cl)cc21` [Example 13, (S)-7-Benzyl-8-chloro-1-methyl-2,3,4,5-tetrahydro-1H-benzo[d]azepine hydrochloride], the IC50 (human 5HT2C receptor) is reported as 30 nM.
With `COc1cc2c(cc1Cc1ccccc1)C(C)CNCC2` (racemic) [Example 14, (R,S)-8-Benzyl-7-methoxy-1-methyl-2,3,4,5-tetrahydro-1H-benzo[d]azepine hydrochloride] the IC50 (human 5HT2C receptor) was 7 nM.
In the case of `C[C@H](N)Cc1cccc(C(F)(F)F)c1` [dexnorfenfluramine], the “amyloid precursor protein (APPs) secretion” value [2] is listed as “stimulated” and the “levels of Aβ production” value [2] is listed as “reducing”.
